{"source": "patent US9656945B2", "about": "“3-acyl-ingenols II” (LEO LABORATORIES LIMITED, priority 2010, dated 2017)", "type_in_all_cases": "cell-based", "key": {"[1]": {"tested_on": "HeLa cells (ATCC CCL-002)", "assay": "Necrosis assay", "conditions": "Homo sapiens, 0.5 h, read-out: HeLa necrosis EC50 range", "protocol": "HeLa cells (ATCC CCL-002) were grown in minimal essential medium (Invitrogen catalog no. 42360) containing 10% fetal bovine serum, 100 IU/ml penicillin and 100 μg/ml streptomycin. 4,000-6,000 cells were seeded into 96-well black ViewPlates-plates, clear bottom, (Perkin Elmer) in 100 μl medium and incubated overnight. Compounds were dissolved and pre-diluted in DMSO in 96-well polypropylene plates (Greiner) in a concentration range of 15 μM to 600 μM. At the time of the experiment cell plates were placed on heating blocks at 37° C., medium was removed and 40 μl fresh, pre-warmed medium was added per well. Cells were incubated for 15 min before addition of compounds. In parallel, 3 μl of compounds were diluted with 197 μl growth medium on a Tecan freedom-EVO pipetting station using 250 μl/s pipetting speed, in order to ensure effective mixing of the highly concentrated compound solutions with the aqueous phase. These pre-dilution plates were then equilibrated on heating blocks at 37° C. for 10 min. 80 μl pre-diluted compound were transferred manually to the corresponding wells containing HeLa cells yielding compound concentrations of 10 μM to 400 μM. Control conditions were 1% DMSO in growth medium (100% viability) and 400 μM ingenol mebutate in growth medium (0% viability). Plates were incubated on the heating blocks at 37° C. for 30 min. At the end of the incubation 10 μl PrestoBlue reagent (Invitrogen) were added to each well, plates were sealed with black seal, followed by incubation at 37° C. for 10 min with gentle shaking (150 rpm). Subsequently, plates were placed at room temperature for 20-30 min. Plates were read immediately after on an Envision Fluorescence reader (Perkin Elmer) with excitation at 535 nm and emission at 630 nm. Test compound titration curves were fitted to a four-parameter sigmoidal curve after normalizing the effect of the test compound to the effect of the positive control (4 10^−4 M PEP0005/ingenol mebutate). AbsEC50 denotes the concentration of test compound producing 50% effect."}, "[2]": {"tested_on": "PMN's (polymorphonuclear leukocytes)", "assay": "Neutrophil oxidative burst assay", "conditions": "Leukocyte, 40 min, read-out: Neutrophil oxidative burst Rel EC50 range", "protocol": "PMN's (polymorphonuclear leukocytes) were isolated and purified from fresh buffy coats by sequential sedimentation, density centrifugation and lysis of contaminating erythrocytes. Buffy coats were incubated with 2% methocel for 30-45 min to differentially sediment red blood cells. The leukocyte-rich supernatant was transferred to lymphoprep tubes to remove mononuclear cells by density centrifugation (400×g, 30 min). The pellet was resuspended and any remaining erythrocytes lysed using 0.2% NaCl for 30 sec before restoring isotonicity by the addition of 1.2% NaCl. This step was repeated until the cell pellet appears relatively free of red blood cells. Cells were resuspended in DPBS (Dulbecco's Phosphate Buffered Saline) (w.o. Ca^2+, Mg^2+) and the concentration adjusted to 1.4×10^6 cells/ml in HBSS (Hanks Balanced Salt solution) (w Ca^2+, Mg^2+) containing 0.1% BSA (Bovine Serum Albumin) and 5 mM glucose just prior to assay initiation. Titrated reference and test compounds were pre-mixed with HE (Hydroethidine) (10 μM final assay concentration) before addition to 96-well plates containing 2.5×10^5 cells. Following 40 min incubation at RT, changes in the respiratory burst was estimated by measuring fluorescence at 579 nm (excitation: 485 nm) using an Envision plate reader.\nTest compound titration curves were fitted to a four-parameter sigmoidal curve after normalizing the effect of the test compound to the effect of the positive control (5×10^−7 M PEP0005). Rel EC50 denotes the concentration of test compound producing an effect that is midway between the fitted top and bottom. Abs EC50 is the concentration of test compound that provokes a response corresponding to 50% of the maximal effect associated with the positive control (5×10^−7 M PEP0005)."}, "[3]": {"tested_on": "Primary human epidermal keratinocytes, HeKa", "assay": "HeKa cytokine release (IL-8) assay", "conditions": "6 h, read-out: HeKa cytokine release (IL-8) Rel EC50 range", "protocol": "Primary human epidermal keratinocytes, HeKa, were seeded (10.000 cells/well) in 96-well plates the day before the assay. Test compounds were diluted in DMSO (dimethyl sulfoxide) and further diluted in assay medium and pipetted into wells of 96 well-plates containing HeKa cells. The plates were incubated for 6 h at 37° C. in humidified air with 5% CO2. Plates are centrifuged briefly to spin down cells at 4° C., the supernatant was removed and analysed by Meso Scale Discovery (MSD) 4-spot cytokine assay (Pro-inflammatory II Ultra Sensitive kit, MSD, MD, USA). The MSD assay employs a sandwich immunoassay format where capture antibodies were coated in a patterned array on the bottom of the wells of a 4-Spot-Multi-MSD plate. Standard samples were incubated in the MULTI-SPOT plates as well, and the cytokine (IL-8) binds to its corresponding capture antibody spot. The cytokine level was quantitated on a SECTOR™ Imager using a cytokine-specific Detection Antibody labelled with MSD SULFO-TAG™ reagent.\nTest compound titration curves were fitted to a four-parameter sigmoidal curve after normalizing the effect of the test compound to the effect of the positive control (1.5×10^−7 M PEP0005). Rel EC50 denotes the concentration of test compound producing an effect that is midway between the fitted top and bottom."}}}
{"molecule": "CC1=C[C@]23C(=O)[C@@H](C=C(CO)[C@@H](O)[C@]2(O)[C@H]1OC(=O)c1ccccc1OC(C)C)[C@H]1[C@@H](C[C@H]3C)C1(C)C", "note": "[Compound 324, Ingenol 3-(2-isopropoxy-benzoate)]", "values": [{"measurement": "EC50", "setting": "[1]", "value": "< 150000", "unit": "nM"}, {"measurement": "EC50", "setting": "[2]", "value": "< 20", "unit": "nM"}, {"measurement": "EC50", "setting": "[3]", "value": "< 20", "unit": "nM"}]}
{"molecule": "CC1=C[C@]23C(=O)[C@@H](C=C(CO)[C@@H](O)[C@]2(O)[C@H]1OC(=O)C1(C)CCCCC1)[C@H]1[C@@H](C[C@H]3C)C1(C)C", "note": "[Compound 308, Ingenol 3-(1-methyl-cyclohexanecarboxylate)]", "values": [{"measurement": "EC50", "setting": "[1]", "value": "< 150000", "unit": "nM"}, {"measurement": "EC50", "setting": "[2]", "value": "< 20", "unit": "nM"}, {"measurement": "EC50", "setting": "[3]", "value": "< 20", "unit": "nM"}]}
{"molecule": "CC1=C[C@]23C(=O)[C@@H](C=C(CO)[C@@H](O)[C@]2(O)[C@H]1OC(=O)c1c(C)cccc1C)[C@H]1[C@@H](C[C@H]3C)C1(C)C", "note": "[Compound 315, Ingenol 3-(2,6-dimethyl-benzoate)]", "values": [{"measurement": "EC50", "setting": "[1]", "value": "< 150000", "unit": "nM"}, {"measurement": "EC50", "setting": "[2]", "value": "< 20", "unit": "nM"}, {"measurement": "EC50", "setting": "[3]", "value": "20 to 100", "unit": "nM"}]}
{"molecule": "CC1=C[C@]23C(=O)[C@@H](C=C(CO)[C@@H](O)[C@]2(O)[C@H]1OC(=O)c1c(C)cc(C)cc1C)[C@H]1[C@@H](C[C@H]3C)C1(C)C", "note": "[Compound 325, Ingenol 3-(2,4,6-trimethyl-benzoate)]", "values": [{"measurement": "EC50", "setting": "[1]", "value": "< 150000", "unit": "nM"}, {"measurement": "EC50", "setting": "[2]", "value": "< 20", "unit": "nM"}, {"measurement": "EC50", "setting": "[3]", "value": "< 20", "unit": "nM"}]}
{"molecule": "CC1=C[C@]23C(=O)[C@@H](C=C(CO)[C@@H](O)[C@]2(O)[C@H]1OC(=O)c1ccccc1Br)[C@H]1[C@@H](C[C@H]3C)C1(C)C", "note": "[Compound 321, Ingenol 3-(2-bromo-benzoate)]", "values": [{"measurement": "EC50", "setting": "[1]", "value": "< 150000", "unit": "nM"}, {"measurement": "EC50", "setting": "[2]", "value": "< 20", "unit": "nM"}, {"measurement": "EC50", "setting": "[3]", "value": "< 20", "unit": "nM"}]}
{"molecule": "CC1=C[C@]23C(=O)[C@@H](C=C(CO)[C@@H](O)[C@]2(O)[C@H]1OC(=O)c1c(N)cccc1Cl)[C@H]1[C@@H](C[C@H]3C)C1(C)C", "note": "[Compound 340, Ingenol 3-(2-amino-6-chloro-benzoate)]", "values": [{"measurement": "EC50", "setting": "[1]", "value": "< 150000", "unit": "nM"}, {"measurement": "EC50", "setting": "[2]", "value": "< 20", "unit": "nM"}, {"measurement": "EC50", "setting": "[3]", "value": "20 to 100", "unit": "nM"}]}
